Assay results: patent publication US20120035187A1 (priority 2009, published 2012)

System: hamsters with cerebellar ataxia
Test: Rotarod test in hamsters with cerebellar ataxia
Type: in vivo, hamster
From the text: Since NK-4 was confirmed to have a neurodegenerative inhibitory action in Experiment 1, hamsters with cerebellar ataxia (cerebellar ataxia is called “cerebellar A” and hamsters with cerebellar ataxia are called “hamsters with cerebellar A”, hereinafter) as a suitable model for human neurodegenerative diseases (e.g., spinal cerebellar degeneration) were subjected to examine the influence of NK-4 administration on their behaviors and brain tissues. Twenty-five hamsters with natural mutation (Nna1 inhibition), which are known to lose Purkinje's cells after three-weeks of age and then induce a spontaneous onset of kinetic motor ataxia after seven-weeks of age (see Akita K. et al., “J. Neurogenetics”, Vol. 21, pp. 19-29, 2007), had been fed at Hayashibara Biochemical Laboratories., Inc., Okayama, Japan, were randomly allocated to the test groups 1 to 5, five heads in each group, as shown in Table 2. Prior to the onset of cerebellar A (at three-weeks of age), PBS was started to administer to the hamsters in the test group 1 at a dose of 10 ml/kg/day. Prior to the onset of cerebellar A (at three-weeks of age), NK-4 was started to be administered to the hamsters in the test groups 2 to 4 at a daily dose of 20 μg/kg, 100 μg/kg or 500 μg/kg. “IGF-1, human, a product name of insulin-like growth factor, commercialized by Assaypro LLC, MO, USA. These administered ingredients were intraperitoneally administered daily to hamsters once a day up to 10-weeks of age. The degree of symptom of cerebellar A and the improvement effect on the symptom by NK-4 were evaluated with an index of improvement in motor coordination of hamsters by conducting once a week the later described rotarod test and the slant tolerance test. At the age of 10-weeks, the hamsters were subjected to counting the falling down frequency and extracted their brains, which were then histologically evaluated. In parallel, the concentration of glutamic acid in the bloods and cerebrospinal fluids (CSF) of the hamsters was assayed. As a test group 6, five normal hamsters, with the same age as the hamsters with cerebellar A used in the test groups 1 to 5, were provided and tested similarly as the hamsters with cerebellar A in such a manner of intraperitoneally administering PBS to them at a dose of 10 ml/kg/day once a day up to 10-weeks of age.
As an index for coordinated movement, it was used a duration time of hamster's movement to staying on a rotarod by locomotion in synchronization with the turn of the rotarod; placing a hamster on an apparatus with a rotarod (having a diameter of 60 mm, prepared by Hayashibara Biochemical Laboratories, Inc., Okayama, Japan), turning at a constant rate of six rpm, and measuring the time until the hamster falls down from the rotarod (see Fernandez et al., “Proc. Natl. Acad. Sci. USA”, Vol. 95, pp. 1253-1258, 1998). The test was repeated six times for each hamster, where five-times of tests starting from the initiation of the test were made as a preliminary examination, and the time until each hamster fell down from the rotarod (called “falling time”, hereinafter) was measured, followed by averaging the falling times for each group consisting of five heads. The falling time was measured until 180 seconds. Based on the results, the relationship between the age and the falling time for each hamster with cerebellar A (test group 1) administered with PBS was graphed. […]
Similarly as in Experiment 2, 130 hamsters with cerebellar ataxia, born within the same week and 3-weeks of age, were randomly divided into 13 groups, consisting of 10 hamsters, respectively. […]

## CCN1C=CC(=CC=C(C=Cc2cc[n+](CC)c3ccccc23)c2cc[n+](CC)c3ccccc23)c2ccccc21.[I-].[I-] [NK-4]
20 μg/kg body weight, 6-Weeks
  Delayed days until the onset of cerebellar ataxia in hamster: 11 days
20 μg/kg body weight, 7-Weeks
  Delayed days until the onset of cerebellar ataxia in hamster: 17 days
20 μg/kg body weight, 8-Weeks
  Delayed days until the onset of cerebellar ataxia in hamster: 17 days
20 μg/kg body weight, 9-Weeks
  Delayed days until the onset of cerebellar ataxia in hamster: 27 days
20 μg/kg body weight, 10-Weeks
  Delayed days until the onset of cerebellar ataxia in hamster: 32 days
100 μg/kg body weight, 5-Weeks
  Delayed days until the onset of cerebellar ataxia in hamster: 7 days
100 μg/kg body weight, 6-Weeks
  Delayed days until the onset of cerebellar ataxia in hamster: 14 days
100 μg/kg body weight, 7-Weeks
  Delayed days until the onset of cerebellar ataxia in hamster: 21 days
100 μg/kg body weight, 8-Weeks
  Delayed days until the onset of cerebellar ataxia in hamster: 21 days
100 μg/kg body weight, 9-Weeks
  Delayed days until the onset of cerebellar ataxia in hamster: 29 days
100 μg/kg body weight, 10-Weeks
  Delayed days until the onset of cerebellar ataxia in hamster: 36 days
500 μg/kg body weight, 5-Weeks
  Delayed days until the onset of cerebellar ataxia in hamster: 6 days
500 μg/kg body weight, 6-Weeks
  Delayed days until the onset of cerebellar ataxia in hamster: 14 days
500 μg/kg body weight, 7-Weeks
  Delayed days until the onset of cerebellar ataxia in hamster: 21 days
500 μg/kg body weight, 8-Weeks
  Delayed days until the onset of cerebellar ataxia in hamster: 21 days
500 μg/kg body weight, 9-Weeks
  Delayed days until the onset of cerebellar ataxia in hamster: 28 days
500 μg/kg body weight, 10-Weeks
  Delayed days until the onset of cerebellar ataxia in hamster: 35 days
Cerebellar ataxia hamsters, 20 μg/kg body weight i.p. once a day from 3-weeks of age, 4-Weeks
  time (sec) endured until falling from rotarod apparatus: 152 ± 4 s
Cerebellar ataxia hamsters, 20 μg/kg body weight i.p. once a day, 5-Weeks
  time (sec) endured until falling from rotarod apparatus: 53 ± 5 s
Cerebellar ataxia hamsters, 20 μg/kg body weight i.p. once a day, 6-Weeks
  time (sec) endured until falling from rotarod apparatus: 89 ± 9 s
Cerebellar ataxia hamsters, 20 μg/kg body weight i.p. once a day, 7-Weeks
  time (sec) endured until falling from rotarod apparatus: 74 ± 10 s
Cerebellar ataxia hamsters, 20 μg/kg body weight i.p. once a day, 8-Weeks
  time (sec) endured until falling from rotarod apparatus: 36 ± 2 s
Cerebellar ataxia hamsters, 20 μg/kg body weight i.p. once a day, 9-Weeks
  time (sec) endured until falling from rotarod apparatus: 48 ± 3 s
Cerebellar ataxia hamsters, 20 μg/kg body weight i.p. once a day, 10-Weeks
  time (sec) endured until falling from rotarod apparatus: 40 ± 4 s
Cerebellar ataxia hamsters, 100 μg/kg body weight i.p. once a day, 4-Weeks
  time (sec) endured until falling from rotarod apparatus: 136 ± 5 s
Cerebellar ataxia hamsters, 100 μg/kg body weight i.p. once a day, 5-Weeks
  time (sec) endured until falling from rotarod apparatus: 145 ± 8 s
Cerebellar ataxia hamsters, 100 μg/kg body weight i.p. once a day, 6-Weeks
  time (sec) endured until falling from rotarod apparatus: 139 ± 10 s
Cerebellar ataxia hamsters, 100 μg/kg body weight i.p. once a day, 7-Weeks
  time (sec) endured until falling from rotarod apparatus: 122 ± 7 s
Cerebellar ataxia hamsters, 100 μg/kg body weight i.p. once a day, 8-Weeks
  time (sec) endured until falling from rotarod apparatus: 79 ± 12 s
Cerebellar ataxia hamsters, 100 μg/kg body weight i.p. once a day, 9-Weeks
  time (sec) endured until falling from rotarod apparatus: 66 ± 6 s
Cerebellar ataxia hamsters, 100 μg/kg body weight i.p. once a day, 10-Weeks
  time (sec) endured until falling from rotarod apparatus: 66 ± 6 s
Cerebellar ataxia hamsters, 500 μg/kg body weight i.p. once a day, 4-Weeks
  time (sec) endured until falling from rotarod apparatus: 156 ± 5 s
Cerebellar ataxia hamsters, 500 μg/kg body weight i.p. once a day, 5-Weeks
  time (sec) endured until falling from rotarod apparatus: 95 ± 8 s
Cerebellar ataxia hamsters, 500 μg/kg body weight i.p. once a day, 6-Weeks
  time (sec) endured until falling from rotarod apparatus: 119 ± 4 s
Cerebellar ataxia hamsters, 500 μg/kg body weight i.p. once a day, 7-Weeks
  time (sec) endured until falling from rotarod apparatus: 145 ± 7 s
Cerebellar ataxia hamsters, 500 μg/kg body weight i.p. once a day, 8-Weeks
  time (sec) endured until falling from rotarod apparatus: 85 ± 8 s
Cerebellar ataxia hamsters, 500 μg/kg body weight i.p. once a day, 9-Weeks
  time (sec) endured until falling from rotarod apparatus: 60 ± 7 s
Cerebellar ataxia hamsters, 500 μg/kg body weight i.p. once a day, 10-Weeks
  time (sec) endured until falling from rotarod apparatus: 52 ± 5 s
Cerebellar ataxia hamsters, agents of Example 1 compared among pentamethine cyanine dye compounds
  improving effect on motor coordination (in words): particularly high improving effect on motor coordination
From rotarod falling time vs test group 1, 20 μg/kg body weight, 5-Weeks
  Delayed days until the onset of cerebellar ataxia in hamster: 0 days
Hamster with cerebellar ataxia, agent of Example 1, 0.5 ml/hamster intraperitoneally once a day for 56 days
  Time of falling from rotarod: 88.4 ± 3.2 s
